# Laboratory results as given in patent US8759366B2, “Aminopyrimidines as SYK inhibitors” (Merck Sharp & Dohme Corp., priority 2009, dated 2014).
# pIC50: −log10 of the molar value.
# Molecular target: recombinant human SYK (GST-hSYK fusion protein) (Homo sapiens (Human), UniProt P43405)
# Details: read-out: rhSYK Activity; Table 15
# Source text: Homogeneous Time-Resolved Fluorescence (HTRF) Assay for the Recombinant Human SYK Enzyme:
row,pIC50,Compound
1,> 7.00,OC(c1ncc(-c2cccc(Nc3nccc(C(F)(F)F)n3)c2)s1)(C1CC1)C1CC1 [Example 15-1]

# Same assay, conditions: read-out: rhSYK Activity; Table 26
row,pIC50,Compound
1,> 7.00,O=C(O)C1CCC(F)(c2ncc(-c3cccc(Nc4nccc(C(F)(F)F)n4)c3)s2)CC1 (centres unmarked) [Example 25-6]
2,5.00 to 6.00,CCOC(=O)C1CCC(F)(c2ncc(-c3cccc(Nc4nccc(C(F)(F)F)n4)c3)s2)CC1 (centres unmarked) [Example 26-5]
3,6.00 to 7.00,FC(F)(F)c1ccnc(Nc2cc(-c3cnc(C4(F)CCC4)s3)cc(N3CCOCC3)c2)n1 [Example 26-2]

# Same assay, conditions: read-out: rhSYK Activity; Table 33-A
row,pIC50,Compound
1,> 7.00,CCOC(=O)C1CCC(O)(c2ncc(-c3cc(C)cc(Nc4nccc(C(F)(F)F)n4)c3)s2)CC1 (centres unmarked) [33A-7]
2,> 7.00,Cc1cc(Nc2nccc(C(F)(F)F)n2)cc(-c2cnc(C3(O)CCC(c4ccc(C(=O)O)cc4)CC3)s2)c1 (centres unmarked) [33A-17]
3,> 7.00,Cc1cc(Nc2ncc(F)c(C3CC3)n2)cc(-c2cnc(C3(O)CCC(C(=O)O)CC3)s2)c1 (centres unmarked) [33A-2]
4,> 7.00,Cc1cc(Nc2ncc(F)c(C)n2)cc(-c2cnc(C3(O)CCC(C(=O)O)C(C)(C)C3C)s2)c1 (centres unmarked) [33A-74]

# Same assay, conditions: read-out: rhSYK Activity; Table 33B
row,pIC50,Compound
1,> 7.00,Cc1cc(Nc2nccc(C(F)(F)F)n2)cc(-c2cnc(C3(O)CCCC3Cc3ccc(C(C)C(=O)O)cc3)s2)c1 (centres unmarked) [Example 33B-2]
2,> 7.00,"Cc1cc(Nc2nccc(C(F)(F)F)n2)cc(-c2cnc(C3(O)CCC(C(=O)O)C(C(C)C)C3)s2)c1 (single isomer, unassigned) [Example 33B-23]"
3,> 7.00,"Cc1cc(Nc2nccc(C(F)(F)F)n2)cc(-c2cnc(C3(O)CCC(C(=O)O)C(C)C3C)s2)c1 (single isomer, unassigned) [Example 33B-39]"
4,> 7.00,"CCC1C(C)C(C(=O)O)CCC1(O)c1ncc(-c2cc(C)cc(Nc3nccc(C(F)(F)F)n3)c2)s1 (single isomer, unassigned) [Example 33B-42]"
5,> 7.00,Cc1cc(Nc2nccc(C)n2)cc(-c2cnc(C3(O)CCC(C(=O)O)C(c4ccc(F)cc4)C3)s2)c1 (centres unmarked) [Example 33B-31]
6,6.00 to 7.00,Cc1cc(Nc2nccc(C)n2)cc(-c2cnc(C3(O)CCC(C(=O)O)C(c4ccsc4)C3)s2)c1 (centres unmarked) [Example 33B-30]
7,> 7.00,"Cc1cc(Nc2nccc(C(F)(F)F)n2)cc(-c2cnc(C3(O)CCCC(c4ccc(C(=O)O)cc4)C3)s2)c1 (single isomer, unassigned) [Example 33B-15]"
8,> 7.00,"Cc1cc(Nc2nccc(C(F)(F)F)n2)cc(-c2cnc(C3(O)CC(C(=O)O)C(C)(C)C3)s2)c1 (single isomer, unassigned) [Example 33B-7]"
9,> 7.00,Cc1cc(Nc2nccc(C)n2)cc(-c2cnc(C3(O)CCC(C(=O)O)C(c4ccccc4C)C3)s2)c1 (centres unmarked) [Example 33B-29]
10,> 7.00,Cc1cc(Nc2nccc(C(F)(F)F)n2)cc(-c2cnc(C3(O)CCCC(C(=O)O)C3)s2)c1 (centres unmarked) [Example 33B-21]
11,> 7.00,"Cc1cc(Nc2nccc(C)n2)cc(-c2cnc(C3(O)CCC(C(=O)O)C(C)C3)s2)c1 (single isomer, unassigned) [Example 33B-33]"
12,> 7.00,Cc1cc(Nc2nccc(C(F)(F)F)n2)cc(-c2cnc(C3(O)CC(C(=O)O)C(C)(C)C3)s2)c1 (centres unmarked) [Example 33B-3]
13,> 7.00,"Cc1cc(Nc2nccc(C(F)(F)F)n2)cc(-c2cnc(C3(O)CC(C(=O)O)C(C)(C)C3)s2)c1 (single isomer, unassigned) [Example 33B-4]"
14,> 7.00,"Cc1cc(Nc2nccc(C(F)(F)F)n2)cc(-c2cnc(C3(O)CCC(C(=O)O)C(C)C3C)s2)c1 (single isomer, unassigned) [Example 33B-38]"

# Same assay, conditions: read-out: rhSYK Activity; Table 33C
row,pIC50,Compound
1,> 7.00,Cc1cc(Nc2nccc(C)n2)cc(-c2cnc(C3(O)C4CC5CC3CC(C(=O)O)(C5)C4)s2)c1 (centres unmarked) [Example 33C-20]

# Same assay, conditions: read-out: rhSYK Activity; Table 33D
row,pIC50,Compound
1,> 7.00,Cc1cc(Nc2nccc(C(F)(F)F)n2)cc(-c2cnc(C(C)(O)c3ccc(NC(=O)CCC(=O)O)cc3)s2)c1 (centres unmarked) [Example 33D-14]
2,> 7.00,Cc1cc(Nc2nccc(C(F)(F)F)n2)cc(-c2cnc(C(C)(O)/C=C/C(C)(C)C(=O)O)s2)c1 (centres unmarked) [Example 33D-5]
3,> 7.00,COC(=O)C(C)(C)/C=C/C(C)(O)c1ncc(-c2cc(C)cc(Nc3nccc(C(F)(F)F)n3)c2)s1 (centres unmarked) [Example 33D-6]

# Same assay, conditions: read-out: rhSYK Activity; Table 36A
row,pIC50,Compound
1,> 7.00,O=C(O)C1CCC(c2ncc(-c3cccc(Nc4nccc(C(F)(F)F)n4)c3)s2)CC1 (centres unmarked) [Example 36A-4]
2,> 7.00,Cc1cc(Nc2nccc(C(F)(F)F)n2)cc(-c2cnc(C3CCCC(=O)C3)s2)c1 (centres unmarked) [Example 36A-8]
3,6.00 to 7.00,CCOC(=O)C1CCC(c2ncc(-c3cc(C)cc(Nc4nccc(C(F)(F)F)n4)c3)s2)CC1 (centres unmarked) [Example 36A-2]

# Same assay, conditions: read-out: rhSYK Activity; Table 113A
row,pIC50,Compound
1,> 7.00,CCOC(=O)C1CCC(O)(c2ncc(-c3cc(C)cc(Nc4nccc(C(F)(F)F)n4)c3)s2)C(C)C1C (centres unmarked) [Example 113A-77]
2,6.00 to 7.00,CCOC(=O)C1CCC(O)(c2ncc(-c3cc(C)cc(Nc4nccc(OCCCOC)n4)c3)s2)CC1C (centres unmarked) [Example 113A-47]
3,> 7.00,Cc1cc(Nc2ncc(F)c(C)n2)cc(-c2cnc([C@@]3(O)CC[C@H](C(=O)O)[C@H](C)C3)s2)c1 [Example 113A-18]

# Same assay, conditions: read-out: rhSYK Activity; Table 113C
row,pIC50,Compound
1,> 7.00,Cc1cc(Nc2nccc(C(C)C)n2)cc(-c2cnc(C3(O)CCCN(C(=O)OC(C)(C)C)CC3)s2)c1 (centres unmarked) [113C-19]
2,> 7.00,Cc1cc(Nc2ncc(Cl)c(C)n2)cc(-c2cnc(C3(O)CCNC(=O)CC3)s2)c1 (centres unmarked) [113C-5]
3,6.00 to 7.00,"Cc1cc(Nc2nccc(C3CC3)n2)cc(-c2cnc(C3(O)CCCN(C(=O)OC(C)(C)C)CC3)s2)c1 (single isomer, unassigned) [113C-18]"
4,> 7.00,O=C1CCC(O)(c2ncc(-c3cccc(Nc4nccc(C(F)(F)F)n4)c3)s2)CCN1 (centres unmarked) [113C-8]
5,> 7.00,Cc1cc(Nc2nccc(C3CC3)n2)cc(-c2cnc(C3(O)CCNC(=O)CC3)s2)c1 (centres unmarked) [113C-2]
6,> 7.00,Cc1cc(Nc2nccc(OC(C)C)n2)cc(-c2cnc(C3(O)CCNC(=O)CC3)s2)c1 (centres unmarked) [113C-10]
7,> 7.00,COc1nc(Nc2cc(C)cc(-c3cnc(C4(O)CCNC(=O)CC4)s3)c2)ncc1Cl (centres unmarked) [113C-11]
8,> 7.00,COc1nc(Nc2cc(C)cc(-c3cnc(C4(O)CCNC(=O)CC4)s3)c2)ncc1F (centres unmarked) [113C-6]
9,> 7.00,Cc1cc(Nc2nccc(-c3cccs3)n2)cc(-c2cnc(C3(O)CCNC(=O)CC3)s2)c1 (centres unmarked) [113C-12]

# Same assay, conditions: read-out: rhSYK Activity; Table 119; HTRF assay, IC50 class symbols
row,pIC50,Compound
1,> 7.00,Cc1cc(Nc2nccc(C(F)(F)F)n2)cc(-c2cnc(C3(O)CCC(C(=O)NCc4ncc[nH]4)CC3)s2)c1 (centres unmarked) [Example 119-38]
2,> 7.00,Cc1cc(Nc2nccc(C(F)(F)F)n2)cc(-c2cnc(C3(O)CCC(C(=O)NCc4cccnn4)CC3)s2)c1 (centres unmarked) [Example 119-58]
3,> 7.00,Cc1cc(Nc2nccc(C(F)(F)F)n2)cc(-c2cnc(C3(O)CCC(C(=O)NCCN4CCOCC4)CC3)s2)c1 (centres unmarked) [Example 119-80]
4,> 7.00,COc1ccnc(Nc2cc(C)cc(-c3cnc([C@@]4(O)CC[C@H](C(=O)NCCCN5CCCC5=O)C(C)(C)C4)s3)c2)n1 [Example 119-137]
5,> 7.00,Cc1cc(Nc2nccc(C(F)(F)F)n2)cc(-c2cnc(C3(O)CCC(C(=O)NCc4cncnc4)CC3)s2)c1 (centres unmarked) [Example 119-57]
6,> 7.00,Cc1cc(Nc2nccc(C(F)(F)F)n2)cc(-c2cnc(C3(O)CCC(C(=O)NCCN4CCCC4=O)CC3)s2)c1 (centres unmarked) [Example 119-78]
7,> 7.00,Cc1cc(Nc2nccc(C(F)(F)F)n2)cc(-c2cnc(C3(O)CCC(C(=O)NCc4nncs4)CC3)s2)c1 (centres unmarked) [Example 119-67]
8,> 7.00,Cc1cc(Nc2nccc(C(F)(F)F)n2)cc(-c2cnc(C3(O)CCC(C(=O)NO)CC3)s2)c1 (centres unmarked) [Example 119-16]
9,> 7.00,Cc1cc(Nc2nccc(C(F)(F)F)n2)cc(-c2cnc(C3(O)CCC(C(=O)NCc4ncon4)CC3)s2)c1 (centres unmarked) [Example 119-45]

row,Compound,pIC50
1,Cc1cc(Nc2nccc(C(F)(F)F)n2)cc(-c2cnc(C3(O)CCC(C(=O)N4CCC5(CC4)OCCO5)CC3)s2)c1 (centres unmarked) [Example 119-140],> 7.00

# Same assay, conditions: read-out: rhSYK Activity; recombinant human SYK, HTRF assay; class symbols
row,pIC50,Compound
1,> 7.00,Cc1cc(Nc2nccc(C(F)(F)F)n2)cc(-c2cnc(C3(O)CCCN(CCF)CC3)s2)c1 (centres unmarked) [Example 54A-82]
2,> 7.00,Cc1cc(Nc2nccc(C(F)(F)F)n2)cc(-c2cnc(C3(O)CN(C(N)=O)C3)s2)c1 [Example 54B-1]
3,> 7.00,Cc1cc(Nc2nccc(C(F)(F)F)n2)cc(-c2cnc(C3(O)CCCN(C(=O)CCn4cncn4)CC3)s2)c1 (racemic) [Example 54D-89]
4,> 7.00,Cc1cc(Nc2ncc(Cl)c(C)n2)cc(-c2cnc(C3(O)CCN(C(N)=O)C3)s2)c1 (centres unmarked) [Example 54B-17]
5,> 7.00,Cc1cc(Nc2nccc(C(F)(F)F)n2)cc(-c2cnc(C3(O)CCN(C(=O)CC(=O)O)CC3)s2)c1 [Example 54A-26]
6,> 7.00,Cc1cccc(NC(=O)N2CCC(O)(c3ncc(-c4cc(C)cc(Nc5nccc(C(F)(F)F)n5)c4)s3)CC2)c1 [Example 54A-63]
7,> 7.00,Cc1cc(Nc2ncc(F)c(C)n2)cc(-c2cnc(C3(O)CCN(C(N)=O)C3)s2)c1 (centres unmarked) [Example 54B-16]
8,> 7.00,"COc1nc(Nc2cc(C)cc(-c3cnc(C4(O)CCCN(C(=O)c5cnn[nH]5)CC4)s3)c2)ncc1Cl (single isomer, unassigned) [Example 54D-32]"
9,> 7.00,COC(=O)NS(=O)(=O)N1CCC(O)(c2ncc(-c3cc(C)cc(Nc4nccc(OC)n4)c3)s2)CC1 [Example 54A-18]
10,> 7.00,"Cc1cc(Nc2nccc(C(F)(F)F)n2)cc(-c2cnc(C3(O)CCCN(CC(F)(F)F)CC3)s2)c1 (single isomer, unassigned) [Example 54A-86]"
11,> 7.00,Cc1cc(Nc2nccc(C(C)C)n2)cc(-c2cnc(C3(O)CCCN(C(=O)c4cnnn4C)CC3)s2)c1 (centres unmarked) [Example 54D-17]

# Same assay, conditions: read-out: rhSYK activity
row,pIC50,Compound
1,> 7.00,Cc1cc(Nc2nccc(C(F)(F)F)n2)cc(-c2cnc(C3(NS(=O)(=O)C(F)(F)F)COC3)s2)c1 [Example 61B-6]
2,> 7.00,Cc1cc(Nc2nccc(C(F)(F)F)n2)cc(-c2cnc(C3(O)CCC(NC(=O)C(CO)(CO)CO)CC3)s2)c1 (centres unmarked) [Example 54E-34]
3,> 7.00,Cc1cc(Nc2nccc(OCCC3CCCN3C)n2)cc(-c2cnc(C3(O)CCC3)s2)c1 (centres unmarked) [Example 108A-17]
